Laboratory results: ChEMBL document CHEMBL5365392, “Inhibitors of ABCG2-mediated multidrug resistance: Lead generation through computer-aided drug design” (Eur J Med Chem, 2023)
“And” between values parts separate entries of the source, which are not always exact repeats. Equal values may be shown once.

Legend:
[1] = target: T1, Broad substrate specificity ATP-binding cassette transporter ABCG2 (Homo sapiens, UniProt Q9UNQ0); assay: Inhibition of ABCG2 (unknown origin)-mediated mitoxantrone efflux
T1 sequence (Q9UNQ0 whole entry): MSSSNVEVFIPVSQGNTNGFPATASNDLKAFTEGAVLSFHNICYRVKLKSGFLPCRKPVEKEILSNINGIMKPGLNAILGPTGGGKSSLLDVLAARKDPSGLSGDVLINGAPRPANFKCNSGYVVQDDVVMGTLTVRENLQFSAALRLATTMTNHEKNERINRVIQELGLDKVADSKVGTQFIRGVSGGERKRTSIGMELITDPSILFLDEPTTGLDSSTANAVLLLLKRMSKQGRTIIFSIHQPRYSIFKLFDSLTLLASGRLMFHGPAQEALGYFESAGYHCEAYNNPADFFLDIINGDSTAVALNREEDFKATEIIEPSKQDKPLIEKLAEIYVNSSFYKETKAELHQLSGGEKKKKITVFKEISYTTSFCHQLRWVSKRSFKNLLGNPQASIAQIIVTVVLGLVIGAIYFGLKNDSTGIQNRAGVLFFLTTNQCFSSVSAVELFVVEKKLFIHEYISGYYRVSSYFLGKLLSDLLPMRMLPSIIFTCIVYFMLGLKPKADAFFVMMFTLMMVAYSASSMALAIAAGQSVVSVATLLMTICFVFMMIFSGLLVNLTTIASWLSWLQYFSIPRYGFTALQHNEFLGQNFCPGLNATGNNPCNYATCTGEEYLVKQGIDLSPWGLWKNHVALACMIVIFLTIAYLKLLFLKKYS

ABCG2 = target: T2, ABCG2 (Homo sapiens, UniProt Q9UNQ0); assay: (§1) Inhibition of ABCG2 (unknown origin)-mediated mitoxantrone efflux at 5 uM relative to control; conditions: probe mitoxantrone
T2 sequence (Q9UNQ0 whole entry): T1 sequence (Q9UNQ0 whole entry)

[2] = target: T1, Broad substrate specificity ATP-binding cassette transporter ABCG2; assay: as §1; conditions: 5 µM
[3] = target: T1, Broad substrate specificity ATP-binding cassette transporter ABCG2; assay: Inhibition of ABCG2 (unknown origin) expressed in HEK293 cells assessed as reduction in mitoxantrone accumulation incubated for 30 mins by flow cytometric method; format: cell-based

| SMILES | EC50 [1] | inhibition at 5 µM (ABCG2) | inhibition (INH) [2] | EC50 [3] |
| --- | --- | --- | --- | --- |
| O=C1CCCc2c1c1c(n2CCc2ccccc2)-c2ccccc2C1=O | 0.43 µM | 100% | – | – |
| O=C1CCCc2c1c1c(n2CCCc2ccccc2)-c2ccccc2C1=O | 0.79 µM | 83% | – | – |
| O=C1CC(c2ccccc2)Cc2c1c1c(n2Cc2ccccc2)-c2ccccc2C1=O (stereo not drawn) | 0.96 µM | 68% | – | – |
| COc1ccc2[nH]cc(CCNC(=O)c3cc(=O)c4c(OCc5ccc(Br)cc5)cccc4o3)c2c1 | – | 98% | – | – |
| CN(CCc1cn(C)c2ccccc12)C(=O)c1cc(=O)c2c(OCc3ccc(Br)cc3)cccc2o1 | – | 88% | – | – |
| COc1ccc2c(CCNC(=O)c3cc(=O)c4c(OCc5ccc(Br)cc5)cccc4o3)c[nH]c2c1 | – | 97% | – | – |
| Cn1cc(CCNC(=O)c2cc(=O)c3c(OCc4ccc(Br)cc4)cccc3o2)c2ccccc21 | – | 85% | – | – |
| CN(CCc1c[nH]c2ccccc12)C(=O)c1cc(=O)c2c(OCc3ccc(Br)cc3)cccc2o1 | – | 105% | – | – |
| COc1ccc2[nH]cc(CCN(C)C(=O)c3cc(=O)c4c(OCc5ccc(Br)cc5)cccc4o3)c2c1 | – | 101% | – | – |
| O=C(NCc1cn(CCc2c[nH]c3ccccc23)nn1)c1cc(=O)c2c(OCc3ccc(Br)cc3)cccc2o1 | – | 87% | – | – |
| COc1ccc2[nH]cc(CCN(C)Cc3cc(=O)c4c(OCc5ccc(Br)cc5)cccc4o3)c2c1 | 1.8 µM | – | 46% and 75% | – |
| CC1CC(=O)c2c3c(n(CCc4ccccc4)c2C1)-c1ccccc1C3=O (stereo not drawn) | 0.23 µM | 100% | – | – |
| O=C1CC(c2ccccc2)Cc2c1c1c(n2CCc2ccccc2)-c2ccccc2C1=O (stereo not drawn) | 0.49 µM | 83% | – | – |
| COc1cccc(CCn2c3c(c4c2-c2ccccc2C4=O)C(=O)CCC3)c1 | 0.31 µM | 78% | – | – |
| CC(C)n1c2c(c3c1-c1ccccc1C3=O)C(=O)C(Cc1ccccc1)(Cc1ccccc1)CC2 | 0.61 µM | 90% | – | – |
| O=c1cc(-c2ccccc2)c(=O)c2c1c1c(=O)c3ccccc3c1n2CCc1ccccc1 | 0.43 µM | 128% | – | – |
| C=CCOc1ccc(CNCCc2c[nH]c3ccccc23)cc1OCC | – | – | – | 0.13 µM |
| O=c1cc(-c2ccccc2)c(=O)c2c1c1c(=O)c3ccccc3c1n2Cc1ccccc1 | – | 41% | – | – |
| Cc1cc(=O)c2c3c(=O)c4ccccc4c3n(CCc3ccccc3)c2c1=O | 0.84 µM | 99% | – | – |
| O=c1ccc(=O)c2c1c1c(=O)c3ccccc3c1n2CCCc1ccccc1 | – | 33% | – | – |
| O=c1ccc(=O)c2c1c1c(=O)c3ccccc3c1n2CCc1ccccc1 | – | 18% | – | – |
| COc1ccc2c3c([nH]c2c1)[C@H](C=C(C)C)N1C(=O)[C@@H]2CCCN2C(=O)[C@@H]1C3 [FUMITREMORGIN] | 2 µM | 100% | – | – |
